The subject of one assay is SNL rats. As to the kind of experiment: Spinal nerve ligation model of neuropathic pain (thermal hyperalgesia). It is filed as in vivo. Particulars: Rattus norvegicus, po, orally administered.
Assay [1] relates to Na+ currents in ND7/23 cells (TTX-s). As to the kind of experiment: Patch clamp evaluation of Na+ currents blockade in ND7/23 cell line. The format is cell-based, rat. The protocol:
ND7/23 (ECACC No 92090903 from SIGMA), is a hybrid cell line derived from a neonatal rat DRG fused with the mouse neuroblastoma N18Tg2 (Wood et al., Proc. Biol. Sci., 1990 September, 241(1302), 187-194).
The molecular identity of the channels responsible for the TTX-s conductance is unknown but it is presumed that TTX-s conductance arises from the activity of a mixed population of sodium channels.
Cells are routinously maintained in DMEM with 10% of FBS, 4 mM glutamine, 1 mM sodium piruvate. The day before the patch clamp experiment cells are detached and seeded at 100,000 cells/polylysine-coated 35 mm Petri dish.
Experiments on ND7/23 cells were carried out using standard whole cell patch clamp methods (Hamill et al., Pfugers Arch., 1981 August, 391(12), 85-100), as described in previous section.
To test the effect of compounds on sodium currents in ND7/23 cells, holding membrane potential was set at −90 mV, then a two step protocol was used to determine the voltage dependence of the block. Sodium currents were activated by a 30 ms step pulse to 0 mV (test pulse) from a 2000 ms preconditioning potential of −110 mV (resting condition) and a potential of ˜−70 mV (half maximal steady-state condition).
Tonic block of resting and depolarized currents at a given drug concentration was calculated as the difference between the peak Na^+ current in the control external bath solution and peak currents with the test substance divided by control peak.
Drug concentration-inhibition curves were obtained by plotting tonic blocks in the resting and depolarized condition, versus drug concentrations. Dose-response curves were fitted to the tonic block data, according to the logistic equation: y=A2+(A1−A2)/[1+(x/IC50)p]. A1 and A2 are fixed values of 0 and 1 corresponding to 0 and 100% current inhibition, x is the drug concentration, IC50 is the drug concentration resulting in 50% current inhibition and p is the corresponding slope factor.
The apparent affinity of drug for the inactivated state (Ki) was calculated according to the equation 1/Kdep=h/Kr+(1−h)/Ki where Kr is the affinity of drug for the resting/closed state; Kdep is the IC50 in the depolarized condition, h and (1−h) are the fractions of channels present at the rest. and dep. potentials, respectively.
Control bath solution contained (mM): NaCl 80, Choline HCl 40, CaCl2 1.3, MgCl2 2, KCl 2, CdCl2 0.4, NiCl2 0.3, TEACl 20, Hepes 10, Glucose 10.
Internal pipette solution consisted of (mM): CsF 65, CsCl 65, NaCl 10, CaCl2 1.3, MgCl2 2, Hepes 10, EGTA 10, MgATP 1.
Compounds were dissolved as stock solutions (20 mM) in DMSO. They were diluted to the final concentrations in the external solution.
On the technique in general: The patch-clamp technique gives a direct electrical read-out from membranes.

SMILES strings stand for the structures. Like-named read-outs stand apart in the source and are kept apart here.

As a reminder, the ED50 is the dose that gives a 50% effect, or the effect in half of the subjects. Broadly, the IC50 is the concentration at which inhibition is half-maximal.

As for `CCCCOc1cccc(CCNCC(=O)N(C)C)c1.Cl` [2-[2-(3-Butoxyphenyl)-ethylamino]-N,N-dimethylacetamide hydrochloride], the ED50 in the assay with SNL rats came to 10.6 mg/kg.
As to `C[C@H](NCc1ccc(OCc2ccccc2F)cc1)C(N)=O` [ralfinamide, (S)-(+)-2-[4-(2-fluorobenzyloxy)-benzylamino]-propanamide, reference compound], the Ki in assay [1] (calculated from Kr and Kdep, read-out: Ki (apparent affinity for the inactivated state)) is 8.3 µM. Further, the IC50 stood at 15 µM in assay [1] (read-out: IC50 depolarized, preconditioning potential ~-70 mV) and 149 µM in assay [1] (read-out: IC50 resting (Kr), preconditioning potential -110 mV).

The values above are taken from patent US9051240B2, “Substituted 2-[2-(phenyl) ethylamino] alkaneamide derivatives and their use as sodium and/or calcium channel modulators” (Newron Pharmaceuticals S.P.A., priority 2007, dated 2015).
